Data on five compounds can be found in patent publication US20240269308A1, “PRODRUGS OF TOPOISOMERASE I INHIBITOR FOR ADC CONJUGATIONS AND METHODS OF USE THEREOF” (priority 2022, published 2024).

Data set [1] deals with HCT-15. In words: HCT-15 cell killing EC50 (−v / +v). The format is cell-based.
In data set [2] the test system is SK-BR-3 cells. In words: SKBR3 cell-based anti-proliferation / viability assay (CellTiter-Glo). Also on record: species or system human. To be noted: read-out: SKBR3 EC50. The method, then: The anti-Her2 viability assay protocol is following.
0.1% BSA was added to the Opti-MEM reduced serum media [Gibco, cat #31985-070]. This assay media was used for the dilution of ADC and free drug.
Cells were seeded in their growth media into 96 well plates (Thermo #136101) one day prior to adding ADCs: 1000/well SKBR3 cells in 80 uL media (target positive cells), 1000/well NCI-N87 cells in 80 uL media (target positive cells), 1000/well Calu-3 in 80 uL media (target positive cells), and 800/well NCI-H1975 cells in 80ul media (target negative cells).
Serial dilutions of free drug in 100% DMSO (1:4 10 pts starting from 100 uM) were prepared. Serially diluted payload was transferred into Opti-Mem with 0.1% BSA (10 uL into 990 uL media). Serial dilutions of ADCs/isotype controls at 1:4 in Opti-Mem with 0.1% BSA (starting from 5×1000 nM) were prepared. 20ul assay media diluted ADC/isotype conjugates as well as free drug were transferred to above cells. The plates were incubated at 37° C., 5% CO2 for 6 days. Plates were developed by adding 100ul CellTiter Glo 2.0. RT 5-10 min. Plates were read with Envision plate reader. Data was analyzed using Prism. Only inner 60 well are used for the assay. The edge wells were filled with media to prevent dry out.
The cell line used in the anti-proliferation assays was SK-BR-3, a human breast, adenocarcinoma (pleural effusion) cell line; The cells were grown in McCoy's 5a Medium+10% FBS. To run the assay, the cells (80 μl, 1000 cells) were added to each well in a 96-well plate and incubated for 24 hours at 37° C. with CO2. Next, the cells were treated with test compounds (20 μl) at various concentrations in appropriate cell culture medium (total volume, 0.1 mL). The control wells contain cells and the medium but lack the test compounds. The plates were incubated for 144 hours at 37° C. with CO2. CTG reagent was then added to the wells (100 μl). After the plates were shaken for 10 min and then incubated for 10 min at room temperature, paste the clear bottom with white back seal and record luminescence with Envision. The inhibition % was calculated according to the following equation: inhibition %=[1-(assay-blank)/(control-blank)]×100.
(In general: In ATP-based viability assays light output follows the ATP content of the culture.)

A short description of data set [3]: Mouse whole blood stability test. The format is in vitro ADME. The following applies: 37° C.; for % of test compound in whole blood (initial 1 uM as 100%): mouse blood. The method, then: In vitro stability of Linker-Prodrug in mouse whole blood Scheme 15. Metabolism of LP1 (M2980) in whole blood.
Stock solution of test compound was provided in 100% DMSO. The stock solution for each compound was diluted into 500 μM with mixture of 50% acetonitrile, then diluted into mouse blood to achieve a final concentration of 1.0 μM. 1.0 μM of test compound in duplicate was incubated in blood at 37° C. Aliquots of 50 uL sample was collected at 0, 15, 30, 60, 120, 240, 480 min, and 24 hours. Reactions were terminated at various time points (0, 15, 30, 60, 120, 240, 480 min, 24 hours) by adding 200 μL of ice-cold acetonitrile containing internal standard with 1% formic acid and then ultrasound for 30 seconds. Plate was centrifuged (4000 rpm, 15 min). 50 μL of supernatants were transferred into a daughter plate containing 200 μL of H2O in each well. The samples were mixed well and analyzed with UPLC-MS/MS.
A Waters liquid chromatographic system was used. Detection was performed on AP14000 Q-Trap and AP15500 mass spectrometer equipped with TurbolonSpray (ESI) Interface (Applied Biosystems, Concord, Ontario, Canada). Analyst 1.5 and 1.6.2 software packages (Applied Biosystems) were used to control the LC-MS/MS system, as well as for data acquisition and processing.
Chromatographic separation was achieved on the Wates BEH C18 column (50*2.1 mm ID, 1.7 μm). The column temperature was maintained at ambient temperature (25° C.). The flow rate was maintained at 0.6 mL/min and the following mobile phases were used: water (0.1% formic acid, v/v) (phase A) and acetonitrile (0.1% formic acid, v/v) (phase B).
Test compounds (1.0 μM) were incubated in blood at 37° C. in duplicate. Aliquots of 50 uL sample was collected at 0, 15, 30, 60, 120, 240, 480 min, and 24 hours. Reactions were terminated at various time points (0, 15, 30, 60, 120, 240, 480 min, 24 hours by adding 200 μL of ice-cold acetonitrile containing internal standard with 1% formic acid, then ultrasound for 30 seconds. The plate was centrifuged (4000 rpm, 15 min). 50 μL of supernatants were transferred into a daughter plate containing 200 μL of water in each well. Samples were mixed well and analyzed with UPLC-MS/MS.
The % was calculated based on initial 1 uM as 100% and the standard concentration curve.

Data set [4] is described as follows: Solubility (Certificate of Analysis of LP1, physical and chemical properties). The following applies: LP1 13g lot, free base. The format is physicochemical.
Data set [5] in a line: Special liability / stability (Certificate of Analysis of LP1, physical and chemical properties). It counts as physicochemical. To be noted: LP1 13g lot, free base.
Data set [6] in a line: M3385 metabolism in human liver S9 without cofactors NADPH and UDPGA. The following applies: 240 min; for Relative UV Abundance* (%): M3385 incubated in human liver S9 without NADPH and UDPGA, single peak (parent or metabolite). It counts as in vitro ADME. An excerpt: (§1) Briefly, hepatocytes are complete liver cells, containing various first-phase and second-phase enzymes that can mediate various metabolic reactions; therefore, it is a better in vitro model to test metabolites. Liver S9 is the supernatant obtained by grinding and centrifuging the liver cells. The enzymes content is lower compared to Hepatocytes. It mainly contains CYP enzymes and some biphasic enzymes (but no biphasic coenzyme), so additional coenzyme (NADPH and UDPGA, etc.) is needed to mediate the biphasic reaction.
(§2) Assay buffer: 100 mM potassium phosphate buffer (K+/Mg2+ buffer, pH7.4):
(§3) The initial stock of liver S9 was diluted in K+/Mg^2+ buffer, pH 7.4 from 20 mg/ml to 2× Liver S9 (2 mg/mL) with alamethicin (50 μg/mL):
(§4) 2×LS9/compound M3385 solution was prepared.
(§5) Time zero/T0: 199 μL 2 mg/mL liver S9 solution; 100 μL of 8 mM NADPH solution; 100 μL of 20 mM UDPGA solution; and 1200 μL of ACN were added, vortexed at 1000 rpm for 5 min, then 1 μL of 4 mM test compound solution was added.
T240-without a co-factor: 199 μL 2 mg/mL liver S9 solution and 200 μL of buffer were added. The T240-w/o sample was prewarmed at 37° C. for 5 min and 1 μL of 4 mM test compound solution was added. After 240 min incubation, 1200 μL of ACN was added and then vortexed at 1000 rpm for 5 min.
(§6) Protein precipitation: quenched samples were centrifuged at 14000 rpm for 5 min.
(§7) Sample preparation: an aliquot of 1200 μL of the supernatant was evaporated under N2 stream until dry. Dried extracts were reconstituted with 200 μL of 25% aqueous ACN, vortexed for 2 minutes, centrifuged at 14000 rpm for 5 min, and then 3 μL of reconstituted supernatant were injected for LC-UV-MS analysis.

Data set [7] can be described thus: M3385 metabolism in human liver S9 with NADPH and UDPGA. The following applies: M3385 incubated in human liver S9 with NADPH and UDPGA, 240 min; single peak (parent or metabolite). The format is in vitro ADME.
Source text: as §1
The metabolism of model compound M3385 was evaluated in human liver S9 with NADPH and UDPGA as follows:
as §2, §3, §4, §5
T240 with a co-factor: 199 μL 2 mg/mL liver S9 solution; 100 μL of 8 mM NADPH solution; and 100 μL of 20 mM UDPGA solution were added. The T240 sample was prewarmed at 37° C. for 5 min and 1 μL of 4 mM test compound solution was added. After 240 min incubation, 1200 μL of ACN was added and then vortexed at 1000 rpm for 5 min.
as §6, §7

Each structure is given as a SMILES string. pEC50: −log10 of the molar value. ≈ marks a conversion by molar mass, not a printed value.

As usually defined, the EC50 is the midpoint of the concentration-response curve. High values mean a less potent agent, low ones a more potent agent. As usually defined, the pEC50 is −log10 of the EC50, conventionally taken in molar units. `CC[C@@]1(O)C(=O)OCc2c1cc1n(c2=O)Cc2c-1nc1cc(F)c(C)c3c1c2[C@@H](N)CC3` [EXT, reference compound]: the 50% effective concentration (EC50) in data set [1] (+v) was determined as 1.13 nM; in data set [1] (−v) it was 1.22 nM. Also, in data set [2], the negative-log EC50 (pEC50) was 9.28.

As a reminder, the solubility is how much of the substance goes into solution per volume. For the compound `CC[C@@]1(O)C(=O)OCc2c1cc1n(c2=O)Cc2c-1nc1cc(F)c(C)c3c1c2[C@@H](NC(=O)COCNC(=O)CNC(=O)OCc1ccc(NC(=O)[C@H](CCCNC(N)=O)NC(=O)[C@@H](NC(=O)CCOCCOCCOCCOCCNC(=O)COC2C#CCCCCC2)C(C)C)cc1)CC3` (stereo partly drawn) [LP1, {4-[(2S)-5-(carbamoylamino)-2-[(2S)-2-{1-[2-(cyclooct-2-yn-1-yloxy)acetamido]-3,6,9,12-tetraoxapentadecan-15-amido}-3-methylbutanamido]pentanamido]phenyl}methyl N-({[({[(10S,23S)-10-ethyl-18-fluoro-10-hydroxy-19-methyl-5,9-dioxo-8-oxa-4,15-diazahexacyclo[14.7.1.0^2,14.0^4,13.0^6,11.0^20,24]tetracosa-1,6(11),12,14,16,18,20(24)-heptaen-23-yl]carbamoyl}methoxy)methyl]carbamoyl}methyl)carbamate], the “% of test compound in whole blood (initial 1 uM as 100%)” value amounted to 100.0% in data set [3] (0 hr); 88.8% in data set [3] (0.25 hr); 82.6% in data set [3] (0.5 hr); 72.3% in data set [3] (1 hr); 52.8% in data set [3] (2 hr); 30.5% in data set [3] (4 hr). Also, the figures for the “% of test compound in whole blood (initial 1 uM as 100%)” value in data set [3] (8 hr) and in data set [3] (24 hr) were 16.5% and 0.0%, respectively. Further, the “Metabolism in whole blood” value in data set [3] (mouse whole blood) was “metabolized to ProDXD, and then to DXd”. Besides, the solubility was 0.026 mM (≈ 36.3 µg/mL) in data set [4] (in water) and 10 mM (≈ 14000 µg/mL) in data set [4] (organic solvent or mixture, in DMSO). Moreover, the “Special liability (light)” value in data set [5] is “Light sensitive”. In data set [5], the “Special liability (pH stability)” value is recorded as “unstable at pH <3 or pH >11”.

For `CC[C@@](O)(C(=O)O)c1cc2n(c(=O)c1CO)Cc1c-2nc2cc(F)c(C)c3c2c1[C@@H](NC(=O)COCNC(=O)CN)CC3` [MP1R], the “Relative UV Abundance* (%)” value is 0.38% in data set [6] and 0.29% in data set [7].

Turning to `CC[C@@]1(O)C(=O)OCc2c1cc1n(c2=O)Cc2c-1nc1cc(F)c(C)c3c1c2[C@@H](NC(=O)COCNC(=O)CN)CC3` [MP1], the “Relative UV Abundance* (%), group total” value in data set [6] (human, 10 μM, pH 7.4) came out at 4.93%.

As to `CC[C@@](O)(C(=O)O)c1cc2n(c(=O)c1CO)Cc1c-2nc2cc(F)c(C)c3c2c1[C@@H](NC(=O)CO)CC3` [MP2R], the “Relative UV Abundance* (%)” value in data set [6] is listed as 0.18%; in data set [7] it was 0.14%.
